Laboratory results reported in US20200360537A1, “A GANGLIOGLIOMA-INDUCED ANIMAL MODEL AND A METHOD FOR DIAGNOSING AND TREATING GANGLIOGLIOMA AND RELATED DISEASES” (KOREA ADVANCED INSTITUTE OF SCIENCE AND TECHNOLOGY, priority 2017, published 2020).

Test system: BRAF V600E mutant mice
Assay: Seizure reduction by BRAF V600E specific inhibitor in BRAF V600E mutant mice (video-EEG brainwave monitoring)
Format: in vivo, mouse

`CCCS(=O)(=O)Nc1ccc(F)c(C(=O)c2c[nH]c3ncc(-c4ccc(Cl)cc4)cc23)c1F` [BRAF V600E specific inhibitor, Vemurafenib] was tested, and the seizure frequency (acute intracerebroventricular injection (3 times/day, 5 uL injection for 8 minutes), FIG. 17 left) was “not reduced”, the “seizures over time (electrophysiologically confirmed)” value (cICV treatment for 6 weeks, FIG. 15 C) was “continuously reduced” and the “reduction of icta (ictal) seizures” value (chronic intracranioventricular injection (cICV), 500 um PLX4032 via osmotic pump, vs vehicle, FIG. 15 B) was “about 4 times”. The seizure frequency (oral administration (PO, per oral), FIG. 17 right) was “not reduced”.
